Read-outs that look alike come from different tables or passages of the source.
Experiments:
[1] = system: MV4;11 cells; experiment: Cell viability assay (CellTiter-Glo) in MV4;11 cells, alone or with gilteritinib; format: cell-based; conditions: Homo sapiens, MV4-11, 72 h, MV4;11 cells, three days, CellTiter-Glo, read-out: MV4
[2] = system: MOLM-13 cells; experiment: Cell viability assay (CellTiter-Glo) in MOLM-13 cells, alone or with gilteritinib; format: cell-based; conditions: Homo sapiens, MOLM-13, 72 h, MOLM-13 cells, three days, CellTiter-Glo
[3] = compound alone (without gilteritinib), 11 IC50
[4] = with gilteritinib 10 nM, 11 IC50 gilteritinib
[5] = compound alone (without gilteritinib), read-out: MOLM-13 IC50
[6] = with gilteritinib 20 nM, read-out: MOLM-13 IC50 gilteritinib

SMILES	IC50 [1, 3] [nM]	IC50 [1, 4] [nM]	IC50 [2, 5] [nM]	IC50 [2, 6] [nM]
O=C1CCC(N2C(=O)c3ccc(NC[C@H]4C[C@H](n5cc(-c6ncccc6C(F)(F)F)c(C6CC6)n5)C4)cc3C2=O)C(=O)N1 (stereo partly drawn) [GS-277, 5-(((trans-3-(3-Cyclopropyl-4-(3-(trifluoromethyl)pyridin-2-yl)-1H-pyrazol-1-yl)cyclobutyl)methyl)amino)-2-(2,6-dioxopiperidin-3-yl)isoindoline-1,3-dione]	< 10	< 10	< 10	< 10
O=C1CCC(N2C(=O)c3ccc(NC[C@H]4C[C@H](n5cc(-c6nccc7[nH]ccc67)c(C6CC6)n5)C4)cc3C2=O)C(=O)N1 (stereo partly drawn) [GS-278, 5-(((trans-3-(3-Cyclopropyl-4-(1H-pyrrolo[3,2-c]pyridin-4-yl)-1H-pyrazol-1-yl)cyclobutyl)methyl)amino)-2-(2,6-dioxopiperidin-3-yl)isoindoline-1,3-dione]	< 10	< 10	10 to 100	< 10
O=C1CCC(N2C(=O)c3ccc(NC[C@H]4C[C@H](n5cc(-c6cc7cc[nH]c7cn6)c(C6CC6)n5)C4)cc3C2=O)C(=O)N1 (stereo partly drawn) [GS-279, 5-(((trans-3-(3-Cyclopropyl-4-(1H-pyrrolo[2,3-c]pyridin-5-yl)-1H-pyrazol-1-yl)cyclobutyl)methyl)amino)-2-(2,6-dioxopiperidin-3-yl)isoindoline-1,3-dione]	100 to 1000	10 to 100	> 1000	10 to 100
O=C1CCC(N2C(=O)c3ccc(NC[C@H]4C[C@H](n5cc(-c6nccc7cnccc67)c(C6CC6)n5)C4)cc3C2=O)C(=O)N1 (stereo partly drawn) [GS-280, 5-(((trans-3-(3-Cyclopropyl-4-(2,6-naphthyridin-1-yl)-1H-pyrazol-1-yl)cyclobutyl)methyl)amino)-2-(2,6-dioxopiperidin-3-yl)isoindoline-1,3-dione]	< 10	< 10	< 10	< 10
O=C1CCC(N2C(=O)c3ccc(NC[C@H]4C[C@H](n5cc(-c6nccc7ncccc67)c(C6CC6)n5)C4)cc3C2=O)C(=O)N1 (stereo partly drawn) [GS-281, 5-(((trans-3-(3-Cyclopropyl-4-(1,6-naphthyridin-5-yl)-1H-pyrazol-1-yl)cyclobutyl)methyl)amino)-2-(2,6-dioxopiperidin-3-yl)isoindoline-1,3-dione]	< 10	< 10	10 to 100	< 10
O=C1CCC(N2C(=O)c3ccc(NC[C@H]4C[C@H](n5cc(-c6cc7[nH]ccc7cn6)c(C6CC6)n5)C4)cc3C2=O)C(=O)N1 (stereo partly drawn) [GS-282, 5-(((trans-3-(3-Cyclopropyl-4-(1H-pyrrolo[3,2-c]pyridin-6-yl)-1H-pyrazol-1-yl)cyclobutyl)methyl)amino)-2-(2,6-dioxopiperidin-3-yl)isoindoline-1,3-dione]	10 to 100	< 10	100 to 1000	10 to 100
O=C1CCC(N2C(=O)c3ccc(NC[C@H]4C[C@H](n5cc(-c6ccc(F)cn6)c(C6CC6)n5)C4)cc3C2=O)C(=O)N1 (stereo partly drawn) [GS-283, 5-(((trans-3-(3-Cyclopropyl-4-(5-fluoropyridin-2-yl)-1H-pyrazol-1-yl)cyclobutyl)methyl)amino)-2-(2,6-dioxopiperidin-3-yl)isoindoline-1,3-dione]	100 to 1000	10 to 100	> 1000	10 to 100
O=C1CCC(N2C(=O)c3ccc(NC[C@H]4C[C@H](n5cc(-c6nccc7ccncc67)c(C6CC6)n5)C4)cc3C2=O)C(=O)N1 (stereo partly drawn) [GS-284, 5-(((trans-3-(3-Cyclopropyl-4-(2,7-naphthyridin-1-yl)-1H-pyrazol-1-yl)cyclobutyl)methyl)amino)-2-(2,6-dioxopiperidin-3-yl)isoindoline-1,3-dione]	< 10	< 10	< 10	< 10
O=C1CCC(N2C(=O)c3ccc(NC[C@H]4C[C@H](n5cc(-c6cc7nccnc7cn6)c(C6CC6)n5)C4)cc3C2=O)C(=O)N1 (stereo partly drawn) [GS-285, 5-(((trans-3-(3-Cyclopropyl-4-(pyrido[3,4-b]pyrazin-7-yl)-1H-pyrazol-1-yl)cyclobutyl)methyl)amino)-2-(2,6-dioxopiperidin-3-yl)isoindoline-1,3-dione]	10 to 100	< 10	100 to 1000	10 to 100
O=C1CCC(N2C(=O)c3ccc(NC[C@H]4C[C@H](n5cc(-c6nccc7cccnc67)c(C6CC6)n5)C4)cc3C2=O)C(=O)N1 (stereo partly drawn) [GS-286, 5-(((trans-3-(3-Cyclopropyl-4-(1,7-naphthyridin-8-yl)-1H-pyrazol-1-yl)cyclobutyl)methyl)amino)-2-(2,6-dioxopiperidin-3-yl)isoindoline-1,3-dione]	< 10	< 10	< 10	< 10
O=C1CCC(N2C(=O)c3ccc(NC[C@H]4C[C@H](n5cc(-c6ncccc6OC(F)(F)F)c(C6CC6)n5)C4)cc3C2=O)C(=O)N1 (stereo partly drawn) [GS-287, 5-(((trans-3-(3-Cyclopropyl-4-(3-(trifluoromethoxy)pyridin-2-yl)-1H-pyrazol-1-yl)cyclobutyl)methyl)amino)-2-(2,6-dioxopiperidin-3-yl)isoindoline-1,3-dione]	< 10	< 10	< 10	< 10
O=C1CCC(N2C(=O)c3ccc(NC[C@H]4C[C@H](n5cc(-c6cc7[nH]ncc7cn6)c(C6CC6)n5)C4)cc3C2=O)C(=O)N1 (stereo partly drawn) [GS-288, 5-(((trans-3-(3-Cyclopropyl-4-(1H-pyrazolo[4,3-c]pyridin-6-yl)-1H-pyrazol-1-yl)cyclobutyl)methyl)amino)-2-(2,6-dioxopiperidin-3-yl)isoindoline-1,3-dione]	100 to 1000	10 to 100	100 to 1000	10 to 100
O=C1CCC(N2C(=O)c3ccc(NC[C@H]4C[C@H](n5cc(-c6ccccc6F)c(C6CC6)n5)C4)cc3C2=O)C(=O)N1 (stereo partly drawn) [GS-289, 5-(((trans-3-(3-Cyclopropyl-4-(2-fluorophenyl)-1H-pyrazol-1-yl)cyclobutyl)methyl)amino)-2-(2,6-dioxopiperidin-3-yl)isoindoline-1,3-dione]	10 to 100	< 10	100 to 1000	10 to 100
O=C1CCC(N2C(=O)c3ccc(NC[C@H]4C[C@H](n5cc(-c6cc(F)ccn6)c(C6CC6)n5)C4)cc3C2=O)C(=O)N1 (stereo partly drawn) [GS-290, 5-(((trans-3-(3-Cyclopropyl-4-(4-fluoropyridin-2-yl)-1H-pyrazol-1-yl)cyclobutyl)methyl)amino)-2-(2,6-dioxopiperidin-3-yl)isoindoline-1,3-dione]	> 1000	10 to 100	> 1000	100 to 1000
O=C1CCC(N2C(=O)c3ccc(NC[C@H]4C[C@H](n5cc(-c6nccc7cc[nH]c67)c(C6CC6)n5)C4)cc3C2=O)C(=O)N1 (stereo partly drawn) [GS-291, 5-(((trans-3-(3-Cyclopropyl-4-(1H-pyrrolo[2,3-c]pyridin-7-yl)-1H-pyrazol-1-yl)cyclobutyl)methyl)amino)-2-(2,6-dioxopiperidin-3-yl)isoindoline-1,3-dione]	> 1000	10 to 100	> 1000	10 to 100
CN1CC(Nc2cccc(-c3cn([C@H]4C[C@H](CNc5ccc6c(c5)C(=O)N(C5CCC(=O)NC5=O)C6=O)C4)nc3C3CC3)n2)C1 (stereo partly drawn) [GS-292, 5-(((trans-3-(3-Cyclopropyl-4-(6-((1-methylazetidin-3-yl)amino)pyridin-2-yl)-1H-pyrazol-1-yl)cyclobutyl)methyl)amino)-2-(2,6-dioxopiperidin-3-yl)isoindoline-1,3-dione]	> 1000	> 1000	> 1000	> 1000
O=C1CCC(N2C(=O)c3ccc(NC[C@H]4C[C@H](n5cc(-c6cc7cn[nH]c7cn6)c(C6CC6)n5)C4)cc3C2=O)C(=O)N1 (stereo partly drawn) [GS-293, 5-(((trans-3-(3-Cyclopropyl-4-(1H-pyrazolo[3,4-c]pyridin-5-yl)-1H-pyrazol-1-yl)cyclobutyl)methyl)amino)-2-(2,6-dioxopiperidin-3-yl)isoindoline-1,3-dione]	100 to 1000	10 to 100	> 1000	100 to 1000
O=C1CCC(N2C(=O)c3ccc(NC[C@H]4C[C@H](n5cc(-c6cc(NC7CCNCC7)ccn6)c(C6CC6)n5)C4)cc3C2=O)C(=O)N1 (stereo partly drawn) [GS-294, 5-(((trans-3-(3-Cyclopropyl-4-(4-(piperidin-4-ylamino)pyridin-2-yl)-1H-pyrazol-1-yl)cyclobutyl)methyl)amino)-2-(2,6-dioxopiperidin-3-yl)isoindoline-1,3-dione]	> 1000	> 1000	> 1000	> 1000
CN1CCC(Nc2ccnc(-c3cn([C@H]4C[C@H](CNc5ccc6c(c5)C(=O)N(C5CCC(=O)NC5=O)C6=O)C4)nc3C3CC3)c2)CC1 (stereo partly drawn) [GS-295, 5-(((trans-3-(3-Cyclopropyl-4-(4-((1-methylpiperidin-4-yl)amino)pyridin-2-yl)-1H-pyrazol-1-yl)cyclobutyl)methyl)amino)-2-(2,6-dioxopiperidin-3-yl)isoindoline-1,3-dione]	> 1000	> 1000	> 1000	> 1000
O=C1CCC(N2C(=O)c3ccc(NC[C@H]4C[C@H](n5cc(-c6ncccc6F)c(C6CC6)n5)C4)cc3C2=O)C(=O)N1 (stereo partly drawn) [GS-296, 5-(((trans-3-(3-Cyclopropyl-4-(3-fluoropyridin-2-yl)-1H-pyrazol-1-yl)cyclobutyl)methyl)amino)-2-(2,6-dioxopiperidin-3-yl)isoindoline-1,3-dione]	10 to 100	10 to 100	100 to 1000	10 to 100

Source: patent US20240050428A1 (Cullgen (Shanghai), Inc., priority 2020, published 2024)
